Patent US20180000778A1, “SMALL MOLECULE ANTAGONISTS OF DUSP5 AND METHODS OF USE” (THE MEDICAL COLLEGE OF WISCONSIN, INC., priority 2015, published 2018)

Tests used:
[1] = target: T1, full-length DUSP5 (Homo sapiens, UniProt Q16690); test: ERK dephosphorylation assay, full-length DUSP5 with pERK2 substrate, western blot; type: biochemical
T1 construct: an assay was development using ERK2 and full-length DUSP5
T1 sequence (Q16690 1-384): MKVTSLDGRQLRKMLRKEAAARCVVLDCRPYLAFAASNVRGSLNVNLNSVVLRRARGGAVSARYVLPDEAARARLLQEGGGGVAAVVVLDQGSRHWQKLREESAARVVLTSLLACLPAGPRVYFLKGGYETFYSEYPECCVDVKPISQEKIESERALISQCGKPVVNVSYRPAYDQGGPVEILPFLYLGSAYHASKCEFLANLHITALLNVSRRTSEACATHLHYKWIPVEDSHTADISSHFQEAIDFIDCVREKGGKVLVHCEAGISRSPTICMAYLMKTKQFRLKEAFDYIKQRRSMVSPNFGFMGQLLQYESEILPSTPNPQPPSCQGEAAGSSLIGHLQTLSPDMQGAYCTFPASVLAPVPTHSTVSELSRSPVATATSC
Procedure: ERK Dephosphorylation Assay.
For this assay, 10 ng of GST-tagged recombinant phosphorylated ERK2 (R&D Systems, 1230-KS) was incubated with and without the indicated DUSP5 proteins (0.5 nM final concentration) for 15 min at room temperature, with or without the indicated drugs. The reactions were halted with 2× Laemmli sample buffer and subjected to SDS-PAGE. The proteins were transferred to polyvinylidene difluoride (PVDF) and immunoblotted using antibodies to pERK (Cell Signaling Tech., #9106) and Total ERK (Cell Signaling Tech., #9102). Bound antibodies were visualized using horseradish peroxidase-linked anti-mouse IgG (Cell Signaling Tech, #7076S) and anti-rabbit IgG (Cell Signaling Tech, #7074S), respectively, and ECL reagents (Pierce, 34708) according to the manufacturer's protocol. IC50s were calculated using GraphPad Prism 6 software.
And, the native substrate for DUSP5 is the pERK2 protein, which is much larger and capable of a more complicated range of inter-molecular interactions that the pNPP substrate (which is intended only to mimic the phospho-tyrosine of pERK). […] To this end, an assay was development using ERK2 and full-length DUSP5, monitoring pERK levels in a western blot, as a function of pERK2 substrate concentration. […] This surprising increase in potency for CSD3-2320 (but not NTS) with full length DUSP5 underscores the importance of performing secondary assays with biologically relevant forms of enzyme and substrate.

[2] = target: T2, DUSP5 PD(C263S) (Homo sapiens, UniProt Q16690, C263S); test: NMR binding assay, 2D 1H-15N HSQC titration; settings: pH 6.8; 250 μM RR505 or 500 μM CSD3-2320
T2 construct: hexa-histidine (N); made in house; host or cells: E. coli BL21(DE3), M9 minimal media with 15NH4Cl
T2 sequence (Q16690 178-319 C263S limits assumed): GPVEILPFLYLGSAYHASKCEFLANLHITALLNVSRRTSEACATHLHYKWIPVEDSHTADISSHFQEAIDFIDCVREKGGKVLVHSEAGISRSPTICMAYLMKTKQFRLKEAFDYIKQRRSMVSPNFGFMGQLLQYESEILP
Procedure: NMR samples of DUSP5 PD(C263 S) were prepared for 2D 1H-15N HSQC (heteronuclear single quantum coherence) spectral titration studies. The 15N-labeled DUSP5 PD(C263) protein was concentrated using an Amicon Ultra-4 centrifugal device (Millipore) to 600 μM.
NMR samples were prepared with the following conditions for RR505: ±250 μM RR505, 250 μM DUSP5 PD (C263S), 10% D20, 50 mM potassium phosphate, 100 mM KCl, and 2 mM DTT at pH 6.8.
NMR samples were prepared with the following conditions for CSD3-2320: ±500 μM CSD3-2320, 500 μM DUSP5 PD (C263S), 10% D20, 50 mM potassium phosphate, 100 mM KCl, and 2 mM DTT at pH 6.8. NMR experiments were performed on a 500 MHz Varian NMR System using a triple resonance probe with z-axis gradients at 25° C.

Row | Compound | activity in DUSP5:pERK assay, in words ([1]; in vitro, western blot) | binding by HSQC crosspeak changes [2] | fold increase in IC50 activity compared to NTS ([1]; DUSP5/pERK assay) | IC50 ([1]; full-length DUSP5, pERK substrate) [µM] | IC50 ([1]; full-length DUSP5, pERK/ERK2 substrate) [µM]
1 | O=S(=O)([O-])c1ccc2[nH]c3c(S(=O)(=O)[O-])cc(S(=O)(=O)[O-])cc3c2c1.[Na+].[Na+].[Na+] [RR505, Carbazole-1,3,6-trisulfonic acid, Trisodium Salt] | sub-micromolar range | direct binding | – | – | –
2 | O=S(=O)(O)c1cc(O)c2c(S(=O)(=O)O)cccc2c1 [RR527] | – | direct binding | 1,000 fold | 0.538 ± 0.271 | 33
